Drawing on PubChem BioAssay AID330 (DTP/NCI, 2004), this text covers T/C for 21 compounds.

Several values for one entry are separate records, joined by “and”; a condition that tells them apart may be missing. Equal entries are not always repeated. Toxic doses and inconclusive results are not listed.

For this assay, the system named is P388 leukemia ip, CD2F1 mice, survival T/C. Kind of assay: NCI In Vivo Anticancer Drug Screen. Data for tumor model P388 Leukemia (intraperitoneal) in CD2F1 (CDF1) mice. Conditions: endpoint: median survival time, higher = longer survival. The gist of the method: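 Mice carrying the transplanted tumor received test compound or vehicle. Survival was recorded in each group, and the value is the treated-group measurement divided by that of the vehicle-treated control group.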

Setting [1] is: dose: 25.0 mg/kg/injection, schedule: Q01DX009 (ip), vehicle: saline.
Where [2] appears, read: dose: 50.0 mg/kg/injection, schedule: Q01DX009 (ip), vehicle: saline.
The mark [3] stands for this setting: dose: 50.0 mg/kg/injection, schedule: Q01DX005 (ip), vehicle: saline.
Setting [4] is: dose: 60.0 mg/kg/injection, schedule: Q01DX005 (ip), vehicle: saline with Tween-80.
[5] abbreviates: dose: 100.0 mg/kg/injection, schedule: Q04DX003 (ip), vehicle: saline with Tween-80.
[6] abbreviates: dose: 25.0 mg/kg/injection, schedule: Q01DX009 (ip), vehicle: saline with Tween-80.
Setting [7] is: dose: 120.0 mg/kg/injection, schedule: Q01DX005 (ip), vehicle: saline with Tween-80.
[8] abbreviates: dose: 240.0 mg/kg/injection, schedule: Q01DX005 (ip), vehicle: saline with Tween-80.
The mark [9] stands for this setting: dose: 50.0 mg/kg/injection, schedule: Q04DX003 (ip), vehicle: saline with Tween-80.
[10] abbreviates: dose: 400.0 mg/kg/injection, schedule: Q04DX003 (ip), vehicle: saline with Tween-80.

As to `CC1(C(F)(F)F)CC(=O)NN1` (configuration not stated), the T/C is, setting by setting: under setting [1], 104 % of control; under setting [2], 118 % of control.
As for `COc1ccc(-n2c(-c3ccc(-n4c(C)nc5ccc(I)cc5c4=O)cc3)n[nH]c2=S)cc1`, the T/C is, setting by setting: (dose: 100.0 mg/kg/injection, schedule: Q04DX002 (ip), vehicle: Klucel (hydroxypropylcellulose) (HPC)) 103 % of control; (dose: 200.0 mg/kg/injection, schedule: Q04DX002 (ip), vehicle: Klucel (hydroxypropylcellulose) (HPC)) 98 % of control; (dose: 400.0 mg/kg/injection, schedule: Q04DX002 (ip), vehicle: Klucel (hydroxypropylcellulose) (HPC)) 98 % of control.
As for `CCCCCCCCCCCCNC(=O)[C@@]1(O)[C@H](O)C2(CC)C=CCN3CCC4(c5cc([C@@]6(C(=O)OC)CC7CN(CCc8c6[nH]c6ccccc86)C[C@](O)(CC)C7)c(OC)cc5N(C)[C@H]41)C32` (some centres not stated), the T/C is 157 % of control (dose: 18.0 mg/kg/injection, schedule: Q01DX005 (ip), vehicle: other); 182 % of control (dose: 30.0 mg/kg/injection, schedule: Q01DX005 (ip), vehicle: other); 160 % of control (dose: 30.0 mg/kg/injection, schedule: Q01DX005 (ip), vehicle: saline); 230 % of control (dose: 50.0 mg/kg/injection, schedule: Q01DX005 (ip), vehicle: other); 177 % of control under setting [3].
As to `CCO/C=C1/N=C(c2ccc(OC)c(OC)c2)OC1=O`, the T/C under setting [4] was 110 % of control.
Regarding `CC(=O)C1C(C=C(C)C)C1(C)C` (configuration not stated), the T/C by setting is: (dose: 100.0 mg/kg/injection, schedule: Q04DX002 (ip), vehicle: saline with Tween-80) 96 % of control; (dose: 200.0 mg/kg/injection, schedule: Q04DX002 (ip), vehicle: saline with Tween-80) 106 % of control; (dose: 400.0 mg/kg/injection, schedule: Q04DX002 (ip), vehicle: saline with Tween-80) 101 % of control.
As to `COc1ccc(NC(=S)NN)cc1`, the T/C (dose: 37.5 mg/kg/injection, schedule: Q01DX009 (ip), vehicle: saline with Tween-80) is 95 % of control; the T/C (dose: 75.0 mg/kg/injection, schedule: Q01DX009 (ip), vehicle: saline with Tween-80) was 90 % of control; the T/C under setting [5] is 87 % of control.
As for `CSc1nc(N)c(NS(=O)(=O)c2ccccc2[N+](=O)[O-])c(=O)[nH]1`, the T/C runs as follows: (dose: 50.0 mg/kg/injection, schedule: Q01DX005 (ip), vehicle: Klucel (hydroxypropylcellulose) (HPC)) 100 % of control; (dose: 100.0 mg/kg/injection, schedule: Q01DX005 (ip), vehicle: Klucel (hydroxypropylcellulose) (HPC)) 90 % of control; (dose: 200.0 mg/kg/injection, schedule: Q01DX005 (ip), vehicle: Klucel (hydroxypropylcellulose) (HPC)) 90 % of control.
In the case of `Cc1cccc[c]1[Sn]([Cl])([O][Sn]([Cl])([c]1ccccc1C)[c]1ccccc1C)[c]1ccccc1C`, the T/C runs as follows: (dose: 0.19 mg/kg/injection, schedule: Q01DX005 (ip), vehicle: saline) 110 % of control; (dose: 0.39 mg/kg/injection, schedule: Q01DX005 (ip), vehicle: saline) 114 % of control; (dose: 1.56 mg/kg/injection, schedule: Q01DX005 (ip), vehicle: saline) 124 % of control.
Regarding `CN1CCCC1CCNc1nc(Nc2ccc(Cl)c(Cl)c2)nc2ccc(Cl)cc12` (configuration not stated), the T/C was 95 % of control (dose: 6.25 mg/kg/injection, schedule: Q01DX009 (ip), vehicle: saline with Tween-80); 90 % of control (dose: 12.5 mg/kg/injection, schedule: Q01DX009 (ip), vehicle: saline with Tween-80); 100 % of control under setting [6].
Turning to `Nc1cccc2c1C(O)c1ccccc1-2` (configuration not stated), the T/C (dose: 50.0 mg/kg/injection, schedule: Q01DX005 (ip), vehicle: saline with Tween-80) is 95 % of control; the T/C (dose: 100.0 mg/kg/injection, schedule: Q01DX005 (ip), vehicle: saline with Tween-80) is 99 % of control; the T/C (dose: 200.0 mg/kg/injection, schedule: Q01DX005 (ip), vehicle: saline with Tween-80) was 90 % of control.
For the compound `CCN(CC)c1ccc(NCS(=O)(=O)O)cc1`, the T/C is 95 % of control (dose: 50.0 mg/kg/injection, schedule: Q04DX003 (ip), vehicle: saline sonified); 90 % of control (dose: 100.0 mg/kg/injection, schedule: Q04DX003 (ip), vehicle: saline sonified); 100 % of control (dose: 200.0 mg/kg/injection, schedule: Q04DX003 (ip), vehicle: saline sonified).
Regarding `CNC(=O)OCc1c(Cl)nc2sccn12`, the T/C reads like this: (dose: 100.0 mg/kg/injection, schedule: Q01DX001 (ip), vehicle: Klucel (hydroxypropylcellulose) (HPC)) 109 % of control; (dose: 200.0 mg/kg/injection, schedule: Q01DX001 (ip), vehicle: Klucel (hydroxypropylcellulose) (HPC)) 100 % of control; (dose: 400.0 mg/kg/injection, schedule: Q01DX001 (ip), vehicle: Klucel (hydroxypropylcellulose) (HPC)) 100 % of control.
As for `Cc1ccc(N2C(=O)C(C)SC2=S)cc1Cl` (configuration not stated), the T/C was 100 % of control (dose: 12.5 mg/kg/injection, schedule: Q01DX009 (ip), vehicle: saline); 100 % of control under setting [1]; 101 % of control and 103 % of control under setting [2]; 91 % of control (dose: 200.0 mg/kg/injection, schedule: Q01DX009 (ip), vehicle: saline).
On to `CC1(C)OCC2CCC=C21` (configuration not stated), for which the T/C reads like this: under setting [4], 92 % of control; under setting [7], 99 % of control; under setting [8], 97 % of control.
As to `O=C1CCC(n2cc(F)c(=O)[nH]c2=O)O1` (configuration not stated), the T/C (dose: 25.0 mg/kg/injection, schedule: Q04DX003 (ip), vehicle: saline with Tween-80) is 105 % of control and 94 % of control; the T/C under setting [9] is 108 % of control and 95 % of control; the T/C under setting [5] is 101 % of control and 120 % of control and 95 % of control; the T/C under setting [10] is 103 % of control.
As for `Cc1cccc(C)c1N=CNc1c(C)cccc1C.[Cu+2]`, under setting [6], the T/C was 101 % of control and 103 % of control and 118 % of control.
For the compound `CCN(CCC(=O)OC)Cc1ccnc2ccccc12`, the T/C is, setting by setting: under setting [3], 103 % of control; (dose: 100.0 mg/kg/injection, schedule: Q01DX005 (ip), vehicle: saline) 113 % of control; (dose: 200.0 mg/kg/injection, schedule: Q01DX005 (ip), vehicle: saline) 106 % of control.
For the compound `CCOC(=O)Cc1csc(/C=C/c2ccc(OC)c(OC)c2)n1`, the T/C was 96 % of control under setting [4], 96 % of control under setting [7] and 90 % of control under setting [8].
Take `Nc1cc(N)n(N)c(=S)n1`: the T/C reads like this: (dose: 25.0 mg/kg/injection, schedule: Q01DX009 (ip), vehicle: Klucel (hydroxypropylcellulose) (HPC)) 103 % of control; (dose: 50.0 mg/kg/injection, schedule: Q01DX009 (ip), vehicle: Klucel (hydroxypropylcellulose) (HPC)) 100 % of control; under setting [9], 104 % of control; (dose: 100.0 mg/kg/injection, schedule: Q01DX009 (ip), vehicle: Klucel (hydroxypropylcellulose) (HPC)) 110 % of control; under setting [5], 103 % of control; (dose: 200.0 mg/kg/injection, schedule: Q01DX009 (ip), vehicle: Klucel (hydroxypropylcellulose) (HPC)) 108 % of control. Also, the T/C was 99 % of control (dose: 200.0 mg/kg/injection, schedule: Q04DX003 (ip), vehicle: saline with Tween-80) and 100 % of control under setting [10].
For the compound `O=C(c1ccccc1)C(O)NC(=S)c1cccnc1` (configuration not stated), the T/C by setting is: (dose: 50.0 mg/kg/injection, schedule: Q01DX009 (ip), vehicle: saline with Tween-80) 106 % of control; (dose: 100.0 mg/kg/injection, schedule: Q01DX009 (ip), vehicle: saline with Tween-80) 107 % of control; (dose: 200.0 mg/kg/injection, schedule: Q01DX009 (ip), vehicle: saline with Tween-80) 116 % of control.
As for `NNC(=O)C1CC2c3ccccc3C1c1ccccc12` (configuration not stated), the T/C was 101 % of control under setting [4], 99 % of control under setting [7] and 97 % of control under setting [8].
